Assay results taken from patent US20120245137A1 (Zalicus Pharmaceuticals Ltd., priority 2009, published 2012).
Like-named read-outs stand apart in the source and are kept apart here.

Columns and labels:
Format in all cases: cell-based
CAv1.2 = CAv1.2 (Homo sapiens, UniProt Q13936); test: FLIPR data, CAv1.2 channel blocking (Table 6); details: for CAv1.2 IC50 Ratio closed/inact.: ratio closed/inactivated IC50
Human Cav 2.2 channels = Human Cav 2.2 channels (Homo sapiens, UniProt Q00975); test: Fluorescent assay for CaV2.2 channels using potassium depolarization (VIPR/FLIPR); details: FLIPR data; for CAv2.2 IC50 Ratio closed/inact.: ratio closed/inactivated IC50
In short: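 Fluo-4 calcium fluorescence (480/535 nm) was recorded on VIPR or FLIPR after depolarization to 70 mM final potassium. Before this, cells were preincubated 30 min at 25 °C with compound in 4–30 mM potassium, so that state-dependent block could be assessed; the cells were HEK293 coexpressing Cav2.2, α2δ, β and Kir2.3.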

T-type calcium channel [1] = molecular target: T-type calcium channel (Homo sapiens, UniProt O43497); test: T-type channel blocking, FLIPR data (Table 6); details: CAv3.1
From the text: (§1) Another method, high-throughput spectrophotometric assay, utilizes loading of the cell lines with a fluorescent dye sensitive to intracellular calcium concentration and subsequent examination of the effects of compounds on the ability of depolarization by potassium chloride or other means to alter intracellular calcium levels.

T-type calcium channel [2] = molecular target: T-type calcium channel (Homo sapiens, UniProt O95180); test: T-type channel blocking, FLIPR data (Table 6); details: for CAv3.2 IC50 Ratio closed/inact.: CAv3.2, ratio closed/inactivated IC50
From the text: as §1

[3] = closed state, read-out: CAv1.2 IC50 Closed
[4] = inactivated state, read-out: CAv1.2 IC50 Inact.
[5] = closed state, read-out: CAv2.2 IC50 Closed
[6] = inactivated state, read-out: CAv2.2 IC50 Inact.
[7] = CAv3.2, closed state, read-out: CAv3.2 IC50 Closed
[8] = CAv3.2, inactivated state, read-out: CAv3.2 IC50 Inact.

CAv1.2, sequence (Q13936 whole entry): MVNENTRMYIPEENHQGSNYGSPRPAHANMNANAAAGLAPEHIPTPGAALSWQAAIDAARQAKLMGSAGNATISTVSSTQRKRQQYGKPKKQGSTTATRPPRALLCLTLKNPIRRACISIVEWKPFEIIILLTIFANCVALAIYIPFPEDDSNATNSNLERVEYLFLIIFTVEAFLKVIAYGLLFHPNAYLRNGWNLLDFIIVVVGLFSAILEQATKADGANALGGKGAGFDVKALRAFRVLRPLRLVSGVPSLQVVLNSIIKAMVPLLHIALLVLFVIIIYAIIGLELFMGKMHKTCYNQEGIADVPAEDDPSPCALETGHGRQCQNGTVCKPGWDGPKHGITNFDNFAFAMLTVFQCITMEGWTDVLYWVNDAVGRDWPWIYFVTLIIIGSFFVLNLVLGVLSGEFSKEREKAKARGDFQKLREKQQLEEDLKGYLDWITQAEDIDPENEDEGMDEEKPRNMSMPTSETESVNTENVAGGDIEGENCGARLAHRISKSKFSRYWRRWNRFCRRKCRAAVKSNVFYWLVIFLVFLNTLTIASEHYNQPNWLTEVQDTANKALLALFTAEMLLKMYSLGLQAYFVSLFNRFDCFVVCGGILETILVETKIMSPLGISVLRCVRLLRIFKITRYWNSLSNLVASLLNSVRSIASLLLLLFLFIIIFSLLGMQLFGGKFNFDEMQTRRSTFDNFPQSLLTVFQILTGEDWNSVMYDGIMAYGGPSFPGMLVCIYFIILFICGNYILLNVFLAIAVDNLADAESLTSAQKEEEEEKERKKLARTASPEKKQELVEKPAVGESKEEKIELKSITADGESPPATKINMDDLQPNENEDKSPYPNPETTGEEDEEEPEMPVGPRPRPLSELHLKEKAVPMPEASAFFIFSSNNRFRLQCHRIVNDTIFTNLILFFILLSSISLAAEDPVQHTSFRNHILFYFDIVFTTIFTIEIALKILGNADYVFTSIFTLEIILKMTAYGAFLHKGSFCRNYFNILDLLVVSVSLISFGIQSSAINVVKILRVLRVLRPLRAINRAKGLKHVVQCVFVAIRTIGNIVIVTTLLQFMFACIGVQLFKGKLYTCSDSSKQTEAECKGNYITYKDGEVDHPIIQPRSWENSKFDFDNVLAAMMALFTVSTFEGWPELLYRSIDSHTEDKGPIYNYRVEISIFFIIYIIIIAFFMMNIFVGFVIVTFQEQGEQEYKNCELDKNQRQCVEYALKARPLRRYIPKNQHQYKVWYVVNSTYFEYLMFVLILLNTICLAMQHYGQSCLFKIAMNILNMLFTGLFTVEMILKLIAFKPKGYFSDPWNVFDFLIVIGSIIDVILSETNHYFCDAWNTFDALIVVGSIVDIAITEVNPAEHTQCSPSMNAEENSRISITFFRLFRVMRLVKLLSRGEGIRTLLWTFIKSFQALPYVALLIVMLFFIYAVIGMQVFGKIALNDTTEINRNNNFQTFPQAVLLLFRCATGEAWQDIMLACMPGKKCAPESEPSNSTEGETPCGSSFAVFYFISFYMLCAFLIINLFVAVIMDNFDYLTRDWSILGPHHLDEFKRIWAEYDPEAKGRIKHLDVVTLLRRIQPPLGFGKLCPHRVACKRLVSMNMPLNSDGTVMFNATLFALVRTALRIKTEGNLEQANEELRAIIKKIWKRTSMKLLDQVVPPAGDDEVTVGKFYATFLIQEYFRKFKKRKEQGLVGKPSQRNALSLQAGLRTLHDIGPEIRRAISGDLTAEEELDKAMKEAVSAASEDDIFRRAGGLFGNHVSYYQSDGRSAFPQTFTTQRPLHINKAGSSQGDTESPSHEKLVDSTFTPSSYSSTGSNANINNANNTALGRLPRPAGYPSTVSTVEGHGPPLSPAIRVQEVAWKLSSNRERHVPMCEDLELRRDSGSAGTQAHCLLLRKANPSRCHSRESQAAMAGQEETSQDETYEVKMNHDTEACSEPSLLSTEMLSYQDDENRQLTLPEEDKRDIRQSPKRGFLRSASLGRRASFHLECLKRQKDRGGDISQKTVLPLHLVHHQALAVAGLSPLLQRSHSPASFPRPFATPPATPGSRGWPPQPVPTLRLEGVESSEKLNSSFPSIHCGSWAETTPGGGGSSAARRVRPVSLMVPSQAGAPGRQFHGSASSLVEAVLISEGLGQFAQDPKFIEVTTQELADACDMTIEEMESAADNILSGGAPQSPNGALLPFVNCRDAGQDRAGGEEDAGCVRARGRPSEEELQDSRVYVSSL
CAv1.2, sequence (P54289 25-1103 partner): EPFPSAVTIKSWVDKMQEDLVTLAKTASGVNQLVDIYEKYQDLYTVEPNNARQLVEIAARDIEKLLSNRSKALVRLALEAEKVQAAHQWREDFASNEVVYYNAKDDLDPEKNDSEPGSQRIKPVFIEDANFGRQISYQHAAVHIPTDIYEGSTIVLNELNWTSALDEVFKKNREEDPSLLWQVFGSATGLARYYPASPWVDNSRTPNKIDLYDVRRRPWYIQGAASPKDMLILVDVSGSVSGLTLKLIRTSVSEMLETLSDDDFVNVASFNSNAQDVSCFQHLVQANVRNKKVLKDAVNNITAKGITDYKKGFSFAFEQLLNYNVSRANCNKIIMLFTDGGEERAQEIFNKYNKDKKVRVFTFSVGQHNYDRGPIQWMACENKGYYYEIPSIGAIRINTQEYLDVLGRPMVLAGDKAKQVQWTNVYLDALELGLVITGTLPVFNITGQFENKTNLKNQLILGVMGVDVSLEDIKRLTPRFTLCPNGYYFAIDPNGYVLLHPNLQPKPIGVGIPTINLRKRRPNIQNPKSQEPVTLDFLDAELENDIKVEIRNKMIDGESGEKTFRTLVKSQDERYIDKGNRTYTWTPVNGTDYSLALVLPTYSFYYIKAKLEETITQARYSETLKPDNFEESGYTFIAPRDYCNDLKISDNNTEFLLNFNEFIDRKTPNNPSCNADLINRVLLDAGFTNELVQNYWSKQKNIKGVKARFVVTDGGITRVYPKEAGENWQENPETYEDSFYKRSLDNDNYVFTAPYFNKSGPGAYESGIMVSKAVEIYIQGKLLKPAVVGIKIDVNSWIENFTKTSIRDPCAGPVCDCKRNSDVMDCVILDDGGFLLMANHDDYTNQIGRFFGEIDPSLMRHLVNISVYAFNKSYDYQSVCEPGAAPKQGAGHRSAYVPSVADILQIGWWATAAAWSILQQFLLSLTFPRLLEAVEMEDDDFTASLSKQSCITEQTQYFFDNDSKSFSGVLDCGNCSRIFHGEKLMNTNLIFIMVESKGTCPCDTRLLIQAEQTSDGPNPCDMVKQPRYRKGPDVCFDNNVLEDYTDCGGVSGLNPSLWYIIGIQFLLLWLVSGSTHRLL
CAv1.2, sequence (Q08289 whole entry partner): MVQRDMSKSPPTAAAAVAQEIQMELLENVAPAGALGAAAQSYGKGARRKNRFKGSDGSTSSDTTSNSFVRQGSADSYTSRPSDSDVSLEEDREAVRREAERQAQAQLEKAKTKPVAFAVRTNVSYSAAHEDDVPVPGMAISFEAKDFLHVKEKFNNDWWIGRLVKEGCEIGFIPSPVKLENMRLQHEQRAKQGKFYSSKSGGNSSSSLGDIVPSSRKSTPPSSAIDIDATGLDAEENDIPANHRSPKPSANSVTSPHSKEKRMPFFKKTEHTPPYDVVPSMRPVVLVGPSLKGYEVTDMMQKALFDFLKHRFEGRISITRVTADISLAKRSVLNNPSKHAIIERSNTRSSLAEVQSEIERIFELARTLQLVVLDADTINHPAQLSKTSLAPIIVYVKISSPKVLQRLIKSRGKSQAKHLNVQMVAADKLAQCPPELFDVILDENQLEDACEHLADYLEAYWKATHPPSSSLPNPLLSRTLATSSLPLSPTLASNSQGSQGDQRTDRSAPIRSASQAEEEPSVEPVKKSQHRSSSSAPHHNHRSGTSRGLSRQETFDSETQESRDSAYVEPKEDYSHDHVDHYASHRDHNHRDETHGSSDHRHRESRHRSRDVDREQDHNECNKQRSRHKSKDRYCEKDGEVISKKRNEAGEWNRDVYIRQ

Row | SMILES | IC50 (Human Cav 2.2 channels; [5]) [µM] | IC50 (Human Cav 2.2 channels; [6]) [µM] | CAv2.2 IC50 Ratio closed/inact. (Human Cav 2.2 channels) | IC50 (T-type calcium channel [1]) [µM] | IC50 (T-type calcium channel [2]; [7]) [µM] | IC50 (T-type calcium channel [2]; [8]) [µM] | CAv3.2 IC50 Ratio closed/inact. (T-type calcium channel [2]) | IC50 (CAv1.2; [3]) [µM] | IC50 (CAv1.2; [4]) [µM] | CAv1.2 IC50 Ratio closed/inact. (CAv1.2)
1 | CC(C)([C@H]1C[C@H](NC(=O)c2cc(C(F)(F)F)n[nH]2)C1)S(=O)(=O)c1cccc(OC(F)(F)F)c1 [Compound 632] | 5.69 | 0.46 | 12.4 | 9.41 | 0.57 | 1.52 | 0.4 | ≥ 10 | 3.3 | 3
2 | CC(C)([C@H]1C[C@H](NC(=O)c2ccc(Cl)c(F)c2)C1)S(=O)(=O)c1cccc(OC(F)(F)F)c1 [Compound 633] | 2.06 | 0.19 | 10.8 | 2.3 | 0.63 | 0.57 | 1.1 | 5.74 | 1.18 | 4.9
3 | CC(C)([C@H]1C[C@H](NC(=O)c2ccc(F)c(Cl)c2)C1)S(=O)(=O)c1cccc(OC(F)(F)F)c1 [Compound 634] | 2.21 | 0.22 | 10 | 1.55 | 0.7 | 0.81 | 0.9 | 5.92 | 0.6 | 9.9
4 | CC(C)([C@H]1C[C@H](NC(=O)c2ccc(C(F)(F)F)cc2S(C)(=O)=O)C1)S(=O)(=O)c1cccc(OC(F)(F)F)c1 [Compound 636] | 10 | 0.38 | 26.3 | 9.97 | 4.22 | 5.44 | 0.8 | ≥ 10 | 5.24 | 1.9
5 | CC(C)([C@H]1C[C@H](NC(=O)c2ncc(C(F)(F)F)cc2S(C)(=O)=O)C1)S(=O)(=O)c1cccc(OC(F)(F)F)c1 [Compound 637] | 10 | 0.58 | 17.2 | ≥ 10 | ≥ 10 | 10 | 1 |  | ≥ 10 | 
6 | CC(C)([C@H]1C[C@@H](NC(=O)c2ccc(F)c(Cl)c2)C1)S(=O)(=O)c1cccc(OC(F)(F)F)c1 [Compound 641] | 1.67 | 0.25 | 6.7 | 0.77 | 0.29 | 0.53 | 0.5 | 4.11 | 0.69 | 6
7 | CC(C)([C@H]1C[C@H](Nc2ccnc(C(F)(F)F)n2)C1)S(=O)(=O)c1cccc(OC(F)(F)F)c1 [Compound 647] | 4.17 | 0.86 | 4.8 | 3.27 | 2.99 | 2.59 | 1.2 | 6.55 | 1.08 | 6.1
8 | CC(C)([C@H]1C[C@@H](Nc2ccnc(C(F)(F)F)n2)C1)S(=O)(=O)c1cc(F)cc(C(F)(F)F)c1 [Compound 648] | 5.05 | 0.99 | 5.1 | 2.81 | 5.14 | 4.1 | 1.3 | 8.41 | 2.28 | 3.7
9 | CC(C)([C@H]1C[C@H](Nc2ccnc(C(F)(F)F)n2)C1)S(=O)(=O)c1cc(F)cc(C(F)(F)F)c1 [Compound 649] | 4.83 | 1.19 | 4.1 | 3.13 | 2.4 | 2.74 | 0.9 | 6.39 | 1.81 | 3.5

Continued by falling IC50 (Human Cav 2.2 channels; [5]), values first:

Row | IC50 (Human Cav 2.2 channels; [5]) [µM] | IC50 (Human Cav 2.2 channels; [6]) [µM] | CAv2.2 IC50 Ratio closed/inact. (Human Cav 2.2 channels) | IC50 (T-type calcium channel [1]) [µM] | IC50 (T-type calcium channel [2]; [7]) [µM] | IC50 (T-type calcium channel [2]; [8]) [µM] | CAv3.2 IC50 Ratio closed/inact. (T-type calcium channel [2]) | SMILES | IC50 (CAv1.2; [3]) [µM] | IC50 (CAv1.2; [4]) [µM] | CAv1.2 IC50 Ratio closed/inact. (CAv1.2)
10 | 10 | 0.47 | 21.3 | 4.17 | 8.38 | 7.16 | 1.2 | CC(C)([C@H]1C[C@@H](NC(=O)c2ccc(C(F)(F)F)cc2S(C)(=O)=O)C1)S(=O)(=O)c1cccc(OC(F)(F)F)c1 [Compound 643] | ≥ 10 | 9.25 | 1.1
11 | 10 | 3.26 | 3.1 | 9.04 | 6.41 | 3.59 | 1.8 | O=S(=O)(c1cc(F)cc(C(F)(F)F)c1)[C@H]1C[C@@H](CNc2ccnc(C(F)(F)F)n2)C1 [Compound 651] | 9.21 | 3.86 | 2.4
12 | 10 | 1.36 | 7.4 | ≥ 10 |  | 10 |  | CC(C)([C@H]1C[C@@H](NC(=O)CC2(N)CCCCC2)C1)S(=O)(=O)c1cc(F)cc(C(F)(F)F)c1 [Compound 653] |  | ≥ 10 | 
13 | 9.9 | 1.88 | 5.3 | 7.29 | 2.27 | 2.69 | 0.8 | O=S(=O)(c1cccc(OC(F)(F)F)c1)[C@H]1C[C@@H](CNc2ccnc(C(F)(F)F)n2)C1 [Compound 650] | 9.1 | 3.51 | 2.6
14 | 9.19 | 0.87 | 10.6 | 2.01 | 2.94 | 1.53 | 1.9 | CC(C)([C@H]1C[C@H](NS(=O)(=O)c2ccc(C(F)(F)F)cc2)C1)S(=O)(=O)c1cccc(C(F)(F)F)c1 [Compound 663] | ≥ 10 | 2.98 | 3.4
15 | 8.49 | 0.24 | 35.4 | 4.69 | 9.97 | 6.08 | 1.6 | CC(C)S(=O)(=O)c1cc(C(F)(F)F)cnc1C(=O)N[C@H]1C[C@@H](C(C)(C)S(=O)(=O)c2cccc(OC(F)(F)F)c2)C1 [Compound 645] | ≥ 10 | 6.8 | 1.5
16 | 6.79 | 0.21 | 32.3 | 4.24 | 5.49 | 6.38 | 0.9 | CC(C)S(=O)(=O)c1cc(C(F)(F)F)cnc1C(=O)N[C@H]1C[C@H](C(C)(C)S(=O)(=O)c2cccc(OC(F)(F)F)c2)C1 [Compound 638] | ≥ 10 | 6.11 | 1.6
17 | 6.16 | 0.87 | 7.1 | 2.28 | 2.58 | 2.55 | 1 | CC(C)([C@H]1C[C@@H](NC(=O)c2cc(C(F)(F)F)n[nH]2)C1)S(=O)(=O)c1cccc(OC(F)(F)F)c1 [Compound 639] | 9.31 | 3.4 | 2.7
18 | 4.23 | 1.03 | 4.1 | 4.59 | 5.27 | 3.9 | 1.4 | CC(C)([C@H]1C[C@@H](Nc2ccnc(C(F)(F)F)n2)C1)S(=O)(=O)c1cccc(OC(F)(F)F)c1 [Compound 646] | 8 | 2.33 | 3.4
19 | 3.56 | 0.61 | 5.8 | ≥ 10 | ≥ 10 | 10 | 1 | CNC1(CC(=O)NCc2ccc(S(=O)(=O)c3cccc(C(F)(F)F)c3)cc2)CCCCC1 [Compound 660] | 7.48 | 4.93 | 1.5
20 | 3.09 | 0.63 | 4.9 | 4.07 | 9.61 | 2.81 | 3.4 | CC(C)([C@H]1C[C@@H](NC(=O)c2ccnc(C(F)(F)F)n2)C1)S(=O)(=O)c1cccc(OC(F)(F)F)c1 [Compound 642] | ≥ 10 | 8.43 | 1.2
21 | 2.49 | 0.4 | 6.2 | 1.26 | 0.7 | 0.92 | 0.8 | CC(C)([C@H]1C[C@@H](NC(=O)c2ccc(Cl)c(F)c2)C1)S(=O)(=O)c1cccc(OC(F)(F)F)c1 [Compound 640] | 4.9 | 1.43 | 3.4
22 | 2 | 0.27 | 7.4 | 6.96 | 7.63 | 7.84 | 1 | CC(C)([C@H]1C[C@H](NC(=O)c2ccnc(C(F)(F)F)n2)C1)S(=O)(=O)c1cccc(OC(F)(F)F)c1 [Compound 635] | ≥ 10 | 7.63 | 1.3
